Laboratory results reported in patent US12312641B2, “Sensitivity marker for antibody-drug conjugate” (priority 2018, dated 2025).
Read-outs that look alike come from different tables or passages of the source.

B1: antibody-drug conjugate (1): humanized anti-hTROP2 antibody (SEQ ID NO: 1 residues 20-470, SEQ ID NO: 2 residues 21-234) conjugated to the exatecan-derivative drug-linker via a thioether bond (conjugate, chains of the INN, looked up)
VH: QVQLVQSGAEVKKPGASVKVSCKASGYTFTTAGMQWVRQAPGQGLEWMGWINTHSGVPKYAEDFKGRVTISADTSTSTAYLQLSSLKSEDTAVYYCARSGFGSSYWYFDVWGQGTLVTVSS
VL: DIQMTQSPSSLSASVGDRVTITCKASQDVSTAVAWYQQKPGKAPKLLIYSASYRYTGVPSRFSGSGSGTDFTLTISSLQPEDFAVYYCQQHYITPLTFGQGTKLEIK
modifications: exatecan-derivative drug-linker

Experiments:
Format in all cases: cell-based
[1] = test system: Human breast cancer cell line MDA-MB-468; test: Cell proliferation inhibition test upon SLFN11 knockdown, MDA-MB-468
Protocol: Human breast cancer cell line MDA-MB-468 was obtained from ATCC and used for evaluation. MDA-MB-468 cells suspended at 2×10^3 cells/mL in RPMI-1640 medium containing 10% bovine fetal serum were seeded in a 10 cm cell culture dish at 10 mL/dish. Twenty-four hours after seeding, […] of ON-TARGETplus SLFN11 siRNA (Dharmacon Inc.) or ON-TARGETplus Non-targeting Control Pool (Dharmacon Inc.) and 30 μL of Lipofectamine™ RNAiMAX Transfection Reagent (Thermo Fisher Scientific Inc.) were suspended in 1 mL of Opti-MEM medium, and the entire amount of the suspension was added to the medium. After 72 hours, the medium was removed and the dish was washed with PBS, then the cells were dissociated and recovered from the dish using 1 mL of TrypLE™ Express. The recovered cells were suspended at 5×10^4 cells/mL in RPMI-1640 medium containing 10% bovine fetal serum, and seeded in a 96-well cell culture plate at 100 μL/well. Twenty-four hours after seeding, the medium was replaced with a medium containing 100 nM, 33 nM, 11 nM, 3.7 nM, 1.2 nM, 0.41 nM, 0.13 nM, 0.045 nM, or 0 nM of compound (1) or antibody-drug conjugate (1) at 100 μL/well. The molar concentration of antibody-drug conjugate (1) was calculated by setting the average molecular weight to 150,000. Cells were all cultured at 37° C. under 5% CO2. After 72 hours from the medium replacement, ATPlite 1 step detection system (PerkinElmer Inc.) was added at 100 μL/well. The wells were incubated at room temperature for 10 minutes, then the luminescence intensity of each well was measured.
(§1) The cell growth inhibition rate (%) at each condition was calculated using the following calculation formula: Cell growth inhibition rate (%)=100×(1−T/C) • T: Average luminescence intensity of each well to which specimen was added • C: Average luminescence intensity of each well to which 0 nM specimen was added
(§2) The 50% inhibitory concentration at each condition was calculated by fitting to the following calculation formula: Cell viability (%)=(Emax−Emin)×Specimen concentration^γ/((Emax−50)/(50−Emin)×IC50^γ+Specimen concentration^γ)+Emin • Emax: maximum cell growth inhibition rate (%) • Emin: minimum cell growth inhibition rate (%) • IC50: 50% inhibitory concentration • γ: Hill coefficient
(§3) The fitting to the calculation formula was performed using SAS Systems Release 9.2 (SAS Institute Inc.).

[2] = test system: Human pharyngeal cancer cell line FaDu; test: Cell proliferation inhibition test upon SLFN11 knockdown, FaDu; details: for Cell proliferation inhibitory effect upon SLFN11 knockdown: FaDu cell lines, SLFN11 siRNA vs Non-targeting Control; for Fold change (SLFN11/Non-targeting Control): ratio of IC50
Protocol: (§4) Human pharyngeal cancer cell line FaDu was obtained from ATCC and used for evaluation. FaDu cells suspended at 2×10^3 cells/mL in a MEM medium containing a non-essential amino acid solution, a pyruvic acid solution and 10% bovine fetal serum were seeded in a 10 cm cell culture dish at 10 mL/dish. Twenty-four hours after seeding, 100 pmol of ON-TARGETplus SLFN11 siRNA (Dharmacon Inc.) or ON-TARGETplus Non-targeting Control Pool (Dharmacon Inc.) and 30 μL of Lipofectamine™ RNAiMAX Transfection Reagent (Thermo Fisher Scientific Inc.) were suspended in 1 mL of Opti-MEM medium, and the entire amount of the suspension was added to the medium. After 72 hours, the medium was removed and the dish was washed with PBS, then the cells were dissociated and recovered from the dish using 1 mL of TrypLE™ Express. The recovered cells were suspended at 5×10^4 cells/mL in a MEM medium containing a non-essential amino acid solution, a pyruvic acid solution and 10% bovine fetal serum, and were seeded in a 96-well cell culture plate at 100 μL/well. Twenty-four hours after seeding, the medium was replaced with a medium containing 100 nM, 33 nM, 11 nM, 3.7 nM, 1.2 nM, 0.41 nM, 0.13 nM, 0.045 nM, or 0 nM of compound (1) or antibody-drug conjugate (1) at 100 μL/well. The molar concentration of antibody-drug conjugate (1) was calculated by setting the average molecular weight to 150,000. Cells were all cultured at 37° C. under 5% CO2. After 72 hours from the medium replacement, ATPlite 1 step detection system (PerkinElmer Inc.) was added at 100 μL/well. The wells were incubated at room temperature for 10 minutes, then the luminescence intensity of each well was measured.
as §1, with “growth inhibition rate(%) at each” for “growth inhibition rate (%) at each”
as §2, §3

[3] = test system: Human lung cancer cell line Calu-3; test: Cell proliferation inhibition test upon SLFN11 knockdown, Calu-3
Protocol: as §4, with “lung” for “pharyngeal”, “Calu-3” for “FaDu”, “and” for “and were”
as §1, §2, §3

| Molecule | IC50 ([1]; Homo sapiens, MDA-MB-468, 72 h, read-out: IC50 (nM) Non-targeting Control Pool) | IC50 ([1]; Homo sapiens, MDA-MB-468, 72 h, read-out: IC50 (nM) SLFN11 siRNA) | Cell proliferation inhibitory effect upon SLFN11 knockdown ([1]; MDA-MB-468 cell lines, SLFN11 siRNA vs Non-targeting Control) | Fold change (SLFN11/Non-targeting Control) ([1]; MDA-MB-468 cells, ratio of IC50) | Cell proliferation inhibitory effect upon SLFN11 knockdown [2] | Fold change (SLFN11/Non-targeting Control) ([2]; FaDu cells) | IC50 ([2]; Homo sapiens, FaDu, 72 h, read-out: IC50 (nM) Non-targeting Control Pool) | IC50 ([2]; Homo sapiens, FaDu, 72 h, read-out: IC50 (nM) SLFN11 siRNA) | Cell proliferation inhibitory effect upon SLFN11 knockdown ([3]; Calu-3 cell lines, SLFN11 siRNA vs Non-targeting Control) | Fold change (SLFN11/Non-targeting Control) ([3]; Calu-3 cells, ratio of IC50) | IC50 ([3]; Homo sapiens, Calu-3, 72 h, read-out: IC50 (nM) Non-targeting Control Pool) | IC50 ([3]; Homo sapiens, Calu-3, 72 h, read-out: IC50 (nM) SLFN11 siRNA) | IC50 ([1]; MDA-MB-468 cells, Non-targeting Control Pool, 72 hours, ATPlite, read-out: IC50 (nM) Non-targeting Control Pool) | IC50 ([1]; MDA-MB-468 cells, SLFN11 siRNA knockdown, 72 hours, ATPlite, read-out: IC50 (nM) SLFN11 siRNA) | IC50 ([2]; FaDu cells, Non-targeting Control Pool, 72 hours, ATPlite, read-out: IC50 (nM) Non-targeting Control Pool) | IC50 ([2]; FaDu cells, SLFN11 siRNA knockdown, 72 hours, ATPlite, read-out: IC50 (nM) SLFN11 siRNA) | IC50 ([3]; Calu-3 cells, Non-targeting Control Pool, 72 hours, ATPlite, read-out: IC50 (nM) Non-targeting Control Pool) | IC50 ([3]; Calu-3 cells, SLFN11 siRNA knockdown, 72 hours, ATPlite, read-out: IC50 (nM) SLFN11 siRNA) |
| --- | --- | --- | --- | --- | --- | --- | --- | --- | --- | --- | --- | --- | --- | --- | --- | --- | --- | --- |
| CC[C@@]1(O)C(=O)OCc2c1cc1n(c2=O)Cc2c-1nc1cc(F)c(C)c3c1c2[C@@H](NC(=O)CO)CC3 [Compound (1)] | 4.8 nM | 27.5 nM | attenuated by SLFN11 knockdown | 5.7 | attenuated by SLFN11 knockdown | 8.6 | 3.6 nM | 30.8 nM | attenuated by SLFN11 knockdown | >4.8 | 20.9 nM | > 100 nM |  |  |  |  |  |  |
| B1 |  |  |  |  | attenuated by SLFN11 knockdown | >2.3 |  |  |  |  |  |  | > 100 nM | > 100 nM | 42.6 nM | > 100 nM | > 100 nM | > 100 nM |
